Measurements as given in patent publication US20210060550A1, “DEVICES AND METHODS FOR DETECTION OF MICROORGANISMS” (MICROBIOSENSOR LIMITED, priority 2017, published 2021).

What was measured:
K. pneumoniae = assay: Test D: antibiotic sensitivity in contaminated urine, tetrazolium violet colour change; format: cell-based; details: urine with 10^5 cfu/mL K. pneumoniae, 37° C. 10 hours; μg/ml: nitrofurantoin 64, pivmecillinam 4, trimethoprim 8, cephalexin 32, ciprofloxacin 0.25
Protocol: Each test tube contained 0.04 mg tetrazolium violet, 6.6 mg Wilkins Chalgren media. The test chambers also contained an amount of antibiotic compound as indicated in the tables below (as concentration in final volume of urine).
For each example, 0.2 mL of a urine sample was contaminated with 10^5 cfu/mL of the specified bacteria was poured into each test tube. The resultant composition was incubated at 37° C. for 10 hours. FIGS. 3A to 3F show the test tubes after the incubation period.

P. aeruginosa = assay: Test A: antibiotic sensitivity in contaminated urine, tetrazolium violet colour change; format: cell-based; details: urine with 10^5 cfu/mL P. aeruginosa, 37° C. 10 hours; μg/ml: nitrofurantoin 64, pivmecillinam 4, trimethoprim 1, cephalexin 16, ciprofloxacin 0.25

O=C(O)c1cn(C2CC2)c2cc(N3CCNCC3)c(F)cc2c1=O [ciprofloxacin]
infection treatable or resistant (FIG. 4D) (K. pneumoniae): can be treated
infection treatable or resistant (FIG. 4A) (P. aeruginosa): can be treated

COc1cc(Cc2cnc(N)nc2N)cc(OC)c1OC [trimethoprim]
infection treatable or resistant (FIG. 4D) (K. pneumoniae): can be treated
